Test systems include A498; SF-268; PC-3; HOP-92; HCC 2998; COLO 205; EKVX; SNB-19; NCI-H226; OVCAR-4; UO-31; NCI/ADR-RES; RPMI-8226; MDA-N; K562; SN12C; SW-620; NCI-H23; A549; SF-295.
Holding throughout (assay): DTP human tumour cell line panel, 48 h

The structures appear in SMILES notation.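 Protocol summary: plate cells (96-well), add compound at 5 concentrations, incubate 48 h, interpolate endpoints linearly. GI50: concentration for 50% inhibition of growth.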 Active and inactive are the calls of the source. Rule as the data show it: active = GI50 up to about 1.1 µM and inactive = higher.

Regarding `CC1CC[C@@]2(OC1)OC1C[C@H]3[C@@H]4CC=C5C[C@@H](OC6OC(CO)C(OC7OC(CO)C(O)C(O)C7O)C(O)C6OC6OC(C)C(O)C(O)C6O)CC[C@]5(C)[C@H]4CC[C@]3(C)C1[C@@H]2C` (some centres undefined), the 50% growth inhibitory concentration (GI50) in the test with A498 was 0.611 µM (active); in the test on SF-268, 0.593 µM (active); in the test on PC-3, 0.469 µM (active); in the test on HOP-92 it was 0.729 µM (active); in the test with HCC 2998, 0.484 µM (active); in the test on COLO 205, 0.526 µM (active). For the same molecule, the GI50 with EKVX was 0.544 µM (active); in the test on SNB-19, 1.2 µM (inactive); in the test on NCI-H226 it was 0.873 µM (active); in the test with OVCAR-4 it was 1.53 µM (inactive); with UO-31 it was 0.48 µM (active); in the test with NCI/ADR-RES, 2.07 µM (inactive). The GI50 in the test on RPMI-8226 is 0.526 µM (active); with MDA-N, 0.863 µM (active); in the test on K562 it was 0.466 µM (active); in the test on SN12C it was 0.635 µM (active); in the test on SW-620, 0.624 µM (active); in the test on NCI-H23 it was 0.783 µM (active). Further, the GI50 in the test on A549 was 0.746 µM (active); in the test on SF-295 it was 1.94 µM (inactive).
As to `Nc1nc(N)c(CCCCc2ccc([N+](=O)[O-])cc2)c(N)n1`, the GI50 is > 100 µM (inactive) with A498; > 50.4 µM (inactive) with SF-268; 7.71 µM (inactive) with PC-3; 99.5 µM (inactive) in the test with HOP-92; 38.1 µM (inactive) in the test on HCC 2998; > 94 µM (inactive) in the test on COLO 205. The GI50 in the test with EKVX, in the test on SNB-19, in the test on NCI-H226, in the test with OVCAR-4, in the test on UO-31 and in the test with NCI/ADR-RES was > 100 µM (inactive) in each case. The GI50 was > 25.9 µM (inactive) with RPMI-8226; > 100 µM (inactive) in the test with MDA-N; 3.86 µM (inactive) with K562; > 79.4 µM (inactive) with SN12C; > 30.5 µM (inactive) in the test with SW-620; 10.6 µM (inactive) in the test with NCI-H23. Also, the GI50 was 7.29 µM (inactive) in the test with A549 and 17.1 µM (inactive) in the test with SF-295.
With `COc1ccc(/N=C2\C(=N/c3ccc(OC)cc3)N(c3ccc(N(C)C)cc3)C(=S)N2c2ccc(OC)cc2)cc1`, the GI50 in the test on A498, with SF-268, with PC-3, with HOP-92, with HCC 2998 and in the test on COLO 205 was > 100 µM (inactive) throughout. In addition, the GI50 in the test with EKVX was > 100 µM (inactive); in the test with SNB-19 it was > 100 µM (inactive); with NCI-H226, > 100 µM (inactive); in the test with OVCAR-4, > 100 µM (inactive); in the test on UO-31, 3.81 µM (inactive); with NCI/ADR-RES, > 100 µM (inactive). Also, the GI50 was 0.0532 µM (active) in the test with RPMI-8226; > 100 µM (inactive) in the test on MDA-N; > 100 µM (inactive) in the test with K562; > 100 µM (inactive) with SN12C; > 100 µM (inactive) with SW-620; > 100 µM (inactive) with NCI-H23. In addition, the GI50 is > 100 µM (inactive) in the test with A549 and 0.0518 µM (active) in the test on SF-295.
As for `CCOC(=O)C1=CN(Cc2ccccc2)C2ON=C(c3ccc(Cl)cc3)C2C1` (centres undefined), the GI50 with A498 is > 42.6 µM (inactive); in the test on SF-268, > 42.1 µM (inactive); in the test on PC-3, > 36.6 µM (inactive); with HOP-92 it was 18.8 µM (inactive); in the test with HCC 2998 it was > 100 µM (inactive); with COLO 205 it was > 51.3 µM (inactive). Also, the GI50 in the test on EKVX was 20.6 µM (inactive); with SNB-19, > 100 µM (inactive); with NCI-H226, > 56.2 µM (inactive); with OVCAR-4 it was 42 µM (inactive); in the test on UO-31 it was 26.9 µM (inactive); with NCI/ADR-RES it was > 54.6 µM (inactive). For the same molecule, the GI50 is 22 µM (inactive) in the test with RPMI-8226; 17.9 µM (inactive) in the test on MDA-N; 5 µM (inactive) in the test on K562; > 52 µM (inactive) with SN12C; > 52.5 µM (inactive) in the test with SW-620; 35 µM (inactive) in the test with NCI-H23. Besides, the GI50 in the test with A549 is 17.6 µM (inactive); with SF-295, 45.6 µM (inactive).
Turning to `SC1CCCN(Cc2ccccc2)C1` (centres undefined), the GI50 is 65.2 µM (inactive) in the test with A498; 65.2 µM (inactive) in the test on SF-268; 57.5 µM (inactive) in the test with PC-3; 60 µM (inactive) in the test on HOP-92; 16.2 µM (inactive) with HCC 2998; 17.9 µM (inactive) in the test on COLO 205. Also, the GI50 with EKVX was > 100 µM (inactive); in the test with SNB-19, > 100 µM (inactive); with NCI-H226, > 100 µM (inactive); in the test with OVCAR-4, 56.9 µM (inactive); with UO-31 it was 54.2 µM (inactive); in the test with NCI/ADR-RES, > 100 µM (inactive). Also, the GI50 in the test with RPMI-8226 is 21.3 µM (inactive); with MDA-N it was 59 µM (inactive); with K562, 23.8 µM (inactive); in the test with SN12C it was 95.3 µM (inactive); with SW-620 it was 28.2 µM (inactive); in the test on NCI-H23, 25.6 µM (inactive). Further, the GI50 in the test on A549 was 53.7 µM (inactive); in the test on SF-295 it was 61.1 µM (inactive).
As for `C/C(=N\Nc1nc2cccnc2s1)c1ccccn1`, the GI50 was > 100 µM (inactive) in the test with A498; 0.0284 µM (active) with SF-268; 0.0202 µM (active) in the test with PC-3; 0.37 µM (active) with HOP-92; 1.07 µM (active) with HCC 2998; < 0.01 µM (active) with COLO 205. Besides, the GI50 was < 0.01 µM (active) in the test on EKVX; 0.491 µM (active) in the test with SNB-19; < 0.0155 µM (active) in the test with NCI-H226; 1.07 µM (active) in the test with OVCAR-4; 0.0158 µM (active) with UO-31; < 0.01 µM (active) in the test on NCI/ADR-RES. The 50% growth inhibitory concentration (GI50) in the test on RPMI-8226 was < 0.0143 µM (active); in the test on MDA-N, 1.81 µM (inactive); with K562 it was < 0.0149 µM (active); in the test with SN12C, < 0.01 µM (active); in the test with SW-620, < 0.0143 µM (active); in the test on NCI-H23, 0.0228 µM (active). Besides, the GI50 was 0.245 µM (active) in the test on A549 and 0.288 µM (active) in the test with SF-295.
Consider `COc1ccccc1CNC(=O)[C@H](Cc1ccc(O)cn1)NC(C)=O`, for which the GI50 in the test with A498 is > 100 µM (inactive); in the test on SF-268, > 100 µM (inactive); in the test with PC-3 it was > 100 µM (inactive); in the test on HOP-92, 57.7 µM (inactive); in the test with HCC 2998 it was > 100 µM (inactive); in the test with COLO 205, > 100 µM (inactive). For the same molecule, the GI50 in the test with EKVX, with SNB-19, in the test on NCI-H226, in the test on OVCAR-4, in the test on UO-31 and with NCI/ADR-RES was > 100 µM (inactive) each time. Further, the GI50 with RPMI-8226, in the test with MDA-N, in the test on K562, in the test on SN12C, with SW-620 and in the test on NCI-H23 was > 100 µM (inactive) each time. In addition, the GI50 in the test with A549 and in the test on SF-295 was > 100 µM (inactive) each time.
Regarding `CCOC(=O)/C=C(/C(=O)OCC)n1cc(C)c(=O)n(/C(=C/C(=O)OCC)C(=O)OCC)c1=O`, the GI50 in the test with A498 is 19.8 µM (inactive); with SF-268 it was 8.45 µM (inactive); in the test on PC-3 it was 5.22 µM (inactive); with HOP-92, 1.52 µM (inactive); with HCC 2998, 9.48 µM (inactive); with COLO 205, 1.32 µM (inactive). Further, the GI50 in the test on EKVX is 3.06 µM (inactive); with SNB-19, 19.8 µM (inactive); in the test with NCI-H226, 6.01 µM (inactive); in the test with OVCAR-4, 8.47 µM (inactive); in the test on UO-31, 5.31 µM (inactive); with NCI/ADR-RES, 8.36 µM (inactive). Also, the GI50 is 1.88 µM (inactive) with RPMI-8226; 3.78 µM (inactive) in the test with MDA-N; 1.58 µM (inactive) with K562; 2.98 µM (inactive) in the test on SN12C; 1.22 µM (inactive) with SW-620; 4.03 µM (inactive) in the test on NCI-H23. The GI50 was 15.9 µM (inactive) with A549 and 18.7 µM (inactive) in the test on SF-295.
For the molecule `CC1=C(C(=O)OCCO[N+](=O)[O-])C(c2cccc([N+](=O)[O-])c2)C(C(=O)OC(C)C)=C(C)N1` (centres undefined), the GI50 was 19.4 µM (inactive) in the test with A498; 13.1 µM (inactive) in the test with SF-268; 4.25 µM (inactive) with PC-3; 11 µM (inactive) with HOP-92; 15.7 µM (inactive) with HCC 2998; 10.7 µM (inactive) in the test with COLO 205. Moreover, the GI50 was 16.8 µM (inactive) with EKVX; 19.2 µM (inactive) in the test with SNB-19; 8.95 µM (inactive) in the test with NCI-H226; 3.76 µM (inactive) in the test with OVCAR-4; 12.6 µM (inactive) in the test with UO-31; 10.5 µM (inactive) in the test on NCI/ADR-RES. Further, the GI50 in the test on RPMI-8226 is 2.58 µM (inactive); in the test with MDA-N it was 14.9 µM (inactive); in the test with K562 it was 18.2 µM (inactive); with SN12C it was 17.4 µM (inactive); in the test with SW-620, 22.3 µM (inactive); with NCI-H23, 17.6 µM (inactive). The GI50 is 12.9 µM (inactive) in the test with A549 and 11.4 µM (inactive) in the test on SF-295.
On to `C=C1CCCCCCCCCCC1[S+]([O-])c1ccccc1` (centres undefined), for which the GI50 is 38.6 µM (inactive) in the test on A498; 27.7 µM (inactive) in the test on SF-268; 31.5 µM (inactive) in the test with PC-3; > 100 µM (inactive) with HOP-92; > 100 µM (inactive) with HCC 2998; 25.6 µM (inactive) with COLO 205. Also, the GI50 in the test with EKVX was > 100 µM (inactive); in the test with SNB-19 it was 56.6 µM (inactive); with NCI-H226, 44.7 µM (inactive); with OVCAR-4, 54.5 µM (inactive); with UO-31, 18.2 µM (inactive); in the test on NCI/ADR-RES it was 34.4 µM (inactive). Further, the GI50 is 20.8 µM (inactive) with RPMI-8226; 34 µM (inactive) with MDA-N; 33.8 µM (inactive) in the test with K562; 23.2 µM (inactive) in the test with SN12C; 58.5 µM (inactive) in the test with NCI-H23; 33.3 µM (inactive) with A549. In addition, the GI50 in the test on SF-295 was 42 µM (inactive).

In general, GI50 refers to the concentration giving 50% growth inhibition.
